Assay results: patent US20210300940A1 (Merck Patent GmbH, priority 2018, published 2021)

Tests used:
[1] = target: T1, TLR8 (Homo sapiens, UniProt Q9NR97); test: HEK/293 TLR8 Cell Assay; format: cell-based; conditions: HEK cells, R848 agonist 30 uM final concentration, Steady-Glo readout; read-out: TLR8 potency
T1 construct: expressed in transfected cells; host or cells: HEK/293 reporter cells (NF-kB luciferase)
T1 sequence (Q9NR97 27-1041): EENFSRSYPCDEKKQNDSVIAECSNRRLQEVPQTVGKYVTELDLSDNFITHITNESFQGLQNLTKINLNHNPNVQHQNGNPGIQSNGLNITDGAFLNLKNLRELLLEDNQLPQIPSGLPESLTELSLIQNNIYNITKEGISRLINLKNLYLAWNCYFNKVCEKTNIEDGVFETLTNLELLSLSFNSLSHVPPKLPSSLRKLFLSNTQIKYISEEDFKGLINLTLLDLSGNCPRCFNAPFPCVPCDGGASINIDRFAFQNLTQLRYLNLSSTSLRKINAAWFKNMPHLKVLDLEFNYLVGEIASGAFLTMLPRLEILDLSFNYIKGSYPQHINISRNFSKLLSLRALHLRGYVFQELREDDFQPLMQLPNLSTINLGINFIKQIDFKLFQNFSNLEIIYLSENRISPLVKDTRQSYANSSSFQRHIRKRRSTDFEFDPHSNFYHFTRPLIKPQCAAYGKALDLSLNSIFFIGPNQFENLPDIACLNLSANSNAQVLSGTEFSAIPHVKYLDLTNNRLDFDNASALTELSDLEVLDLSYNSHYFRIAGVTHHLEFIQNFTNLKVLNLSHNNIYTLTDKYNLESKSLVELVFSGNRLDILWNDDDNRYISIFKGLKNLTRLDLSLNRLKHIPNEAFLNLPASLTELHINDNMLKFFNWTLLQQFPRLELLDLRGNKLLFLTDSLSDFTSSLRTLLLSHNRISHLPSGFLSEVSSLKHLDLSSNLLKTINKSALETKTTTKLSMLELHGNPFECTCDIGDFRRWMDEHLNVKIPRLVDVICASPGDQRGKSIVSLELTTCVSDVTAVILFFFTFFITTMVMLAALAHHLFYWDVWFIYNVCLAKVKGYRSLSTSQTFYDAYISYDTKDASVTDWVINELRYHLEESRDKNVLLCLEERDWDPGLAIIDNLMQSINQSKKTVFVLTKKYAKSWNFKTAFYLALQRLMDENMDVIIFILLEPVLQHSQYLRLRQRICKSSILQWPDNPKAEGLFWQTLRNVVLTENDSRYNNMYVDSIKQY

[2] = target: T2, TLR7 (Homo sapiens, UniProt Q9NYK1); test: HEK/293 TLR7 Cell Assay; format: cell-based; conditions: TLR7/NFKb HEK cells, R848 agonist 10 uM final concentration, Steady-Glo readout; read-out: TLR7 potency
T2 construct: expressed in transfected cells; host or cells: HEK/293 cells carrying TLR7 and an NF-kB luciferase reporter
T2 sequence (Q9NYK1 27-1049): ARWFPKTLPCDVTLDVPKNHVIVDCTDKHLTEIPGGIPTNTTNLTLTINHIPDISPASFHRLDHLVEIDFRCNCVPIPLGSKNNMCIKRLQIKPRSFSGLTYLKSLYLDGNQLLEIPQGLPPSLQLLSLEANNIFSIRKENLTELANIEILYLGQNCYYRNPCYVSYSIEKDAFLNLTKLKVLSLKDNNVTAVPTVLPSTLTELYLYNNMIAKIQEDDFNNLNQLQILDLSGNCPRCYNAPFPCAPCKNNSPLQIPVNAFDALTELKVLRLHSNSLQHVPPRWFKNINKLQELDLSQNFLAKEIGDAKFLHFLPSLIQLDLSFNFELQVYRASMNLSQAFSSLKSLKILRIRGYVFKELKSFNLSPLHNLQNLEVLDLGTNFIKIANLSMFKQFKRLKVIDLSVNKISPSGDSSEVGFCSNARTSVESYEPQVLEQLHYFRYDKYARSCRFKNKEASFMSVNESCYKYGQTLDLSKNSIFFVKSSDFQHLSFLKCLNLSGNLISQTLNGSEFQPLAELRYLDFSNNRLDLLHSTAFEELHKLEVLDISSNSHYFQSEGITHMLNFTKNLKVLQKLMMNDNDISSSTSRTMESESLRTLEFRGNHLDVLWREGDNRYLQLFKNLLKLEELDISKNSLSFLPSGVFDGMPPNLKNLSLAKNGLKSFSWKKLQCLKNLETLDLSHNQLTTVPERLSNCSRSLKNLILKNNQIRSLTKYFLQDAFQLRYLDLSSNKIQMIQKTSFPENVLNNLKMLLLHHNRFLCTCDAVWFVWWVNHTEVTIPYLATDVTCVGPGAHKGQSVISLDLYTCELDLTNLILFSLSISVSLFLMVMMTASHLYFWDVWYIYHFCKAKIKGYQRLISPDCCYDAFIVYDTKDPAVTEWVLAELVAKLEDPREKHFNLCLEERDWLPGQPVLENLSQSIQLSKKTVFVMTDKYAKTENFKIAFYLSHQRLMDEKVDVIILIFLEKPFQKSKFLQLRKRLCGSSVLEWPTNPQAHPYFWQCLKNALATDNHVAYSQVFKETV
In short: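 TLR7/NF-κB reporter HEK293 cells, 5000/well, cultured 24 h, then preincubated 30 min with compound before R848 agonist (10 uM final). After 5 h stimulation, Steady-Glo luciferase luminescence read.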

| SMILES | IC50 [1] | IC50 [2] |
| --- | --- | --- |
| Cc1ccc(N2C[C@@H](C)C[C@@H](NC(=O)CN3CCN(C)CC3)C2)c2cccnc12 [Example 86, N-[(3R,5S)-5-methyl-1-(8-methylquinolin-5-yl)piperidin-3-yl]-2-(4-methylpiperazin-1-yl)acetamide] | < 75 nM | 75 to 150 nM |
| C[C@H]1C[C@@H](NCC(=O)N2CC(O)C2)CN(c2ccc(C(F)(F)F)c3ncccc23)C1 [Example 51, 1-(3-Hydroxy-azetidin-1-yl)-2-[(3R,5S)-5-methyl-1-(8-trifluoromethyl-quinolin-5-yl)-piperidin-3-ylamino]-ethanone] | < 75 nM | < 75 nM |
| CN1CCC(F)(CNC(=O)[C@H]2CN(c3ccc(C#N)c4nccnc34)C[C@@H](C(F)(F)F)O2)CC1 (single isomer, unassigned) [Example 359] | < 75 nM | < 75 nM |
| C[C@@H]1CN(c2ccc(C#N)c3nccnc23)C[C@H](CNC(=O)[C@H](C)O)O1 (single isomer, unassigned) [Example 341] | < 75 nM | > 150 nM |
| C[C@@H]1CN(c2ccc(C#N)c3nccnc23)C[C@H](C(=O)NCC(C)(C)O)O1 [Example 246, (2R,6R)-4-(8-Cyano-quinoxalin-5-yl)-6-methyl-morpholine-2-carboxylic acid (2-hydroxy-2-methyl-propyl)-amide] | < 75 nM | < 75 nM |
| C[C@H]1CN(c2ccc(C#N)c3nccnc23)C[C@H](CN2CCN(C)CC2)O1 [Example 231, 8-[(2S,6S)-2-Methyl-6-(4-methyl-piperazin-1-ylmethyl)-morpholin-4-yl]-quinoxaline-5-carbonitrile] | < 75 nM | < 75 nM |
| N#Cc1ccc(N2C[C@@H](CN3CCC4(CC3)CC(=O)N4)O[C@@H](C(F)(F)F)C2)c2nccnc12 (single isomer, unassigned) [Example 364] | > 150 nM | < 75 nM |
| C[C@@H]1CN(c2ccc(C#N)c3nccnc23)C[C@H](CN2CCC(F)(C(=O)O)CC2)O1 [Example 228, 1-[(2S,6R)-4-(8-Cyano-quinoxalin-5-yl)-6-methyl-morpholin-2-ylmethyl]-4-fluoro-piperidine-4-carboxylic acid] | < 75 nM | < 75 nM |
| C[C@@H]1CN(c2cnc(C#N)c3ncccc23)C[C@H](C(=O)NCC2CN(C)CCO2)O1 (stereo partly drawn) [Example 271, (2R,6R)-4-(8-Cyano-[1,7]naphthyridin-5-yl)-6-methyl-morpholine-2-carboxylic acid (4-methyl-morpholin-2-ylmethyl)-amide] | < 75 nM | < 75 nM |
| C[C@@H](C(=O)N[C@@H]1C[C@H](C(F)(F)F)CN(c2ccc(C#N)c3nccnc23)C1)N1CCN(C)CC1 (single isomer, unassigned) [Example 99] | < 75 nM | 75 to 150 nM |
| CC(=O)NCCNC[C@H]1CN(c2cnc(C#N)c3ncccc23)C[C@@H](C)O1 [Example 380, N-(2-{[(2S,6R)-4-(8-Cyano-[1,7]naphthyridin-5-yl)-6-methyl-morpholin-2-ylmethyl]-amino}-ethyl)-acetamide] | > 150 nM | > 150 nM |
| C[C@@H]1CN(c2cnc(C#N)c3ncccc23)C[C@H](Cn2cc(C(=O)O)cn2)O1 [Example 365, 1-[(2R,6R)-4-(8-Cyano-[1,7]naphthyridin-5-yl)-6-methyl-morpholin-2-ylmethyl]-1H-pyrazole-4-carboxylic acid] | < 75 nM | < 75 nM |
| C[C@@H]1CN(c2ccc(C#N)c3ncncc23)C[C@H](C(=O)NCC2(F)CCN(C)CC2)O1 [Example 346, (2R,6R)-4-(8-Cyano-quinazolin-5-yl)-6-methyl-morpholine-2-carboxylic acid (4-fluoro-1-methyl-piperidin-4-ylmethyl)-amide] | < 75 nM | < 75 nM |
| C[C@@H]1CN(c2cnc(C#N)c3ncccc23)C[C@H](CNCC(O)CF)O1 (stereo partly drawn) [Example 373, 5-{(2S,6R)-2-[(3-Fluoro-2-hydroxy-propylamino)-methyl]-6-methyl-morpholin-4-yl}-[1,7]naphthyridine-8-carbonitrile] | > 150 nM | > 150 nM |
| CC(C(=O)N[C@@H]1C[C@H](C(F)(F)F)CN(c2ccc(C#N)c3ncccc23)C1)N1CCN(C)CC1 (single isomer, unassigned) [Example 100] | < 75 nM | 75 to 150 nM |
| C[C@H]1C[C@@H](NC(=O)[C@@H](N)C(C)(C)O)CN(c2ccc(C(F)(F)F)c3ncccc23)C1 [Example 170, (S)-2-Amino-3-hydroxy-3-methyl-N-[(3R,5S)-5-methyl-1-(8-trifluoromethyl-quinolin-5-yl)-piperidin-3-yl]-butyramide] | < 75 nM | 75 to 150 nM |
| CCOc1ncc(N2C[C@H](N)C[C@H](C(F)(F)F)C2)c2cccnc12 [Example 10, (3R,5S)-1-(8-Ethoxy-[1,7]naphthyridin-5-yl)-5-trifluoromethyl-piperidin-3-ylamine] | > 150 nM | > 150 nM |
| C[C@H]1C[C@@H](NCC(C)(F)C(=O)O)CN(c2ccc(C#N)c3nccnc23)C1 (stereo partly drawn) [Example 15, 3-[(3R,5S)-1-(8-Cyano-quinoxalin-5-yl)-5-methyl-piperidin-3-ylamino]-2-fluoro-2-methyl-propionic acid] | < 75 nM | < 75 nM |
| Cc1ncc(N2C[C@@H](C)C[C@@H](NC(=O)CC3(N)CC3)C2)c2cccnc12 [Example 121, 2-(1-aminocyclopropyl)-N-[(3R,5S)-5-methyl-1-(8-methyl-1,7-naphthyridin-5-yl)piperidin-3-yl]acetamide] | < 75 nM | 75 to 150 nM |
| Cc1c(F)cc(N2C[C@@H](C)C[C@@H](NC(=O)[C@@H](N)[C@@H](C)O)C2)c2cccnc12 [Example 134, (2S,3R)-2-Amino-N-[(3R,5S)-1-(7-fluoro-8-methyl-quinolin-5-yl)-5-methyl-piperidin-3-yl]-3-hydroxy-butyramide] | 75 to 150 nM | 75 to 150 nM |
| C[C@@H]1CN(c2cnc(C#N)c3ncccc23)C[C@H](CN2CCNC(=O)C2)O1 [Example 379, 5-[(2R,6S)-2-Methyl-6-(3-oxo-piperazin-1-ylmethyl)-morpholin-4-yl]-naphthyridine-8-carbonitrile] | > 150 nM | > 150 nM |
| C[C@@H]1CN(c2ccc(C#N)c3nccnc23)C[C@H](C(=O)NCC2CS(=O)(=O)C2)O1 [Example 258, (2R,6R)-4-(8-cyanoquinoxalin-5-yl)-N-[(1,1-dioxo-1λ^6-thietan-3-yl)methyl]-6-methylmorpholine-2-carboxamide] | > 150 nM | < 75 nM |
